The record followed here is publication PMC12603070, “A high-throughput screening approach to discover potential colorectal cancer chemotherapeutics: repurposing drugs to identify novel disruptors of 14-3-3 proteins” (Cell Death & Disease, 2025).

Assay [1] deals with T1, 14-3-3ζ:BAD-112-136F interactions (Homo sapiens, UniProt P63104).
T1 construct: expressed in transfected cells; host or cells: NIH-3T3 fibroblasts, bi-directional pBI-CMV1 plasmid
T1 sequence (P63104 1-245): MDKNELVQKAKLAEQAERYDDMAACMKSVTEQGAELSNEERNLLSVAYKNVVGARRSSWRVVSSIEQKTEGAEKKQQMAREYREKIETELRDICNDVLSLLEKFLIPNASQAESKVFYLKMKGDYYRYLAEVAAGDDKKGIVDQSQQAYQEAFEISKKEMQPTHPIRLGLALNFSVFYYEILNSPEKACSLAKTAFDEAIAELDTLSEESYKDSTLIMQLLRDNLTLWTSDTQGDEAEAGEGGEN
Briefly: BRET sensor screen for disruption of 14-3-3ζ-Rluc8:BAD-112-136F-mCitrine in living NIH-3T3 cells. The class given is cell-based, murine. Further details: inhibition: dose or concentration left out as unconfirmed. To be noted: for inhibition at 20 µM / inhibition: NIH3T3, 3 h; for inhibition: NIH-3T3 cells. In a few lines:
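NIH-3T3 cells were transfected with the BRET sensor two days beforehand, then replated on poly-L-ornithine-coated plates and grown 24 h at 37 °C. Medium was then replaced with Krebs buffer (pH 7.4). Z′-score was calculated to judge HTS robustness.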

A further assay relates to NIH-3T3 cells. Briefly: Hoechst/propidium iodide cell death assay in NIH-3T3. It counts as cell-based. To be noted: for cytotoxicity at 20 µM: Mus musculus, NIH3T3, 24 h, 24 h, read-out: Percentage of cell death % 24h NIH3t3. The source says: A high-content imaging system (PerkinElmer; Operetta CLS), was used to quantify cell death and apoptosis by calculating the number of propidium iodide-positive cells relative to Hoechst-positive cells, and the number of Annexin V-positive cells relative to Hoechst-positive cells, respectively.

Assay [2] deals with HT-29 and Caco-2 CRC cells. Briefly: Cell death in CRC cells, statements covering both HT-29 and Caco-2 (screen at 20 µM, dose-response). The class given is cell-based, human. To be noted: dose-response 2.5-20 µM in HT-29 and Caco-2. Here is the method: Cells were plated at a density of 20,000 cells/well into 96-well plates (PerkinElmer; #6055302) and incubated overnight at 37 °C before the addition of the drugs. One hour prior to imaging, Hoechst 33342 (Invitrogen, #H3570) and propidium iodide (Invitrogen; #P3566) were added to the wells to achieve final concentrations of 50 ng/ml and 0.5 μg/ml, respectively. To measure apoptosis, AlexaFluor 488-conjugated Annexin V (ThermoFisher, Massachusetts, USA; #A13201) was also added at a dilution of 1:400 from the commercial stock. A high-content imaging system (PerkinElmer; Operetta CLS), was used to quantify cell death and apoptosis by calculating the number of propidium iodide-positive cells relative to Hoechst-positive cells, and the number of Annexin V-positive cells relative to Hoechst-positive cells, respectively. To assess caspase-dependent apoptosis, cells were pre-treated for 30 min with the caspase inhibitor Z-VAD-FMK (BD Biosciences, New Jersey, USA; #550377; 20 μM) or the negative control Z-FA-FMK (BD Biosciences; #550411; 20 μM) prior to the incubation of drugs.

In assay [3] the test system is BAD translocation to mitochondria in Caco-2 and HT-29 cells. The assay can be described thus: Confocal imaging of BAD-mCitrine translocation to mitochondria in CRC cells. It counts as cell-based, human. To be noted: 2 µM, 24 h post-treatment. Here is the method: To visualize BAD translocation, 35 mm glass-bottom dishes (ibidi, Gräfelfing, Germany; #81158) were coated with 0.1 mg/mL Poly-D-lysine hydrobromide for 2 h at 37 °C. After coating, dishes were washed twice with sterilized water. Subsequently, cells transfected with BAD-mCitrine were seeded at a density of 20,000 cells per dish and incubated for 24 h to allow for cell attachment. For live-cell imaging, cells were then incubated for 1 h with the mitochondrial membrane potential dye tetramethylrhodamine ethyl ester (TMRE, Invitrogen; #T668) at a final concentration of 100 nM, according to the manufacturer’s instructions. Images were acquired on a Zeiss (Oberkochen, Germany) LSM-900 Airyscan inverted confocal microscope equipped with an environmental incubation system, laser lines including 488 and 561 nm, and an oil immersion 60×/1.40 Plan achromat objective. The signal from the YFP fluorophore (ex. 488 nm, det. 525–542 nm) and the TMRE (ex. 561 nm, det. 600–700 nm) were collected in super-resolution mode. The cell viability dye, DRAQ (BioLegend, California, USA; #424101), was added to the medium at a 1:1000 dilution from the commercial stock and incubated at room temperature for 30 min prior to live-cell imaging. To quantify the colocalization of BAD-mCitrine and the mitochondria labeled with the TMRE, the JACoP plugin in ImageJ was employed. A correlation analysis was performed based on Pearson’s coefficient between pixel-gray values for the two channels.

The mark [4] stands for this setting: hits from the primary screen, read-out: BRET reduction on NIH-3T3.
Setting [5] is: NIH-3T3 expressing BRET sensor, 20 µM, 3 h, read-out: BRET reduction on NIH-3T3.

The structures appear in SMILES notation. Like-named read-outs stand apart in the source and are kept apart here.

Turning to `CCCCCCCCc1ccc(CCC(N)(CO)CO)cc1` [Fingolimod (FTY720), Fingolimod], in assay [1] (read-out: BRET reduction on NIH-3T3, NIH-3T3 cells, hits from the primary screen), the inhibition at 20 µM was 34.9%. The inhibition at 20 µM in assay [1] (read-out: BRET reduction on NIH-3T3, NIH-3T3 expressing BRET sensor, 20 µM, 3 h) was found to be 34.9%. In addition, the “Effect on BRET, dose-response” value in assay [1] (NIH-3T3 expressing BRET sensor, 3 h post-treatment) is “significantly reduced BRET in a dose-dependent manner”. Also, in the assay on NIH-3T3 cells, the cytotoxicity at 20 µM amounted to 89.8% and the “Percentage of cell death % 48h, NIH3T3” value was 86.4299%.

Turning to `O=C(NC1CCN(CCCCC2(C(=O)NCC(F)(F)F)c3ccccc3-c3ccccc32)CC1)c1ccccc1-c1ccc(C(F)(F)F)cc1` [Lomitapide], the inhibition in assay [1] (setting [4]) worked out at 40.8%. Besides, the inhibition at 20 µM in assay [1] (setting [5]) worked out at 40.8%. For the same compound, in the assay with NIH-3T3 cells, the cytotoxicity at 20 µM was found to be 90.2% and the “Percentage of cell death % 48h, NIH3T3” value worked out at 77.6841%. In addition, the “Lowest concentration that significantly induced cell death” value in assay [2] turned out to be 5 µM. The “Mitochondrial translocation of BAD” value in assay [3] was “Mitochondrial translocation of BAD was observed”.

Turning to `OC1(c2ccc(Cl)c(C(F)(F)F)c2)CCN(CCCC(c2ccc(F)cc2)c2ccc(F)cc2)CC1` [Penfluridol], the inhibition in assay [1] (setting [4]) turned out to be 53.8%. Also, the inhibition at 20 µM in assay [1] (setting [5]) was 53.8%. In the assay on NIH-3T3 cells, the cytotoxicity at 20 µM was found to be 85.7% and the “Percentage of cell death % 48h, NIH3T3” value was found to be 79.942%. Further, the “Lowest concentration that significantly induced cell death” value in assay [2] came out at 5 µM. For the same compound, the “Mitochondrial translocation of BAD” value in assay [3] was “Mitochondrial translocation of BAD was observed”.

With `CC(C)(C)c1ccc(C(O)CCCN2CCC(C(O)(c3ccccc3)c3ccccc3)CC2)cc1` (centres unmarked) [Terfenadine], the inhibition in assay [1] (setting [4]) came out at 45.6%. Moreover, the inhibition at 20 µM in assay [1] (setting [5]) turned out to be 45.6%. In the assay on NIH-3T3 cells, the cytotoxicity at 20 µM stood at 85.2% and the “Percentage of cell death % 48h, NIH3T3” value was 73.0215%. For the same compound, the “Lowest concentration that significantly induced cell death” value in assay [2] is recorded as 5 µM. Further, in assay [3], the “Mitochondrial translocation of BAD” value was “Mitochondrial translocation of BAD was observed”.
